Test results from patent publication US20030032153A1, “Novel (R)-2,3-butanediol dehydrogenase, methods for producing same, and methods for producing optically active alcohol using the dehydrogenase” (priority 2001, published 2003).

Assays:
[1] = test system: (R)-2,3-butanediol dehydrogenase; assay: Substrate specificity, reduction reaction of the enzyme obtained in Example 1 with ketones; assay type: biochemical, Kluyveromyces lactis; conditions: coenzyme NADH; reduction of 4-hydroxy-2-butanone taken as 100
Method: (§1) A reaction solution containing 50 mM potassium phosphate buffer (pH 6.5), 0.2 mM NADH, 20 mM 4-hydroxy-2-butanone, and the enzyme is reacted at 30° C., and the decrease in absorbance at 340 nm due to the decrease in NADH is measured. 1 U is defined as the amount of enzyme that catalyzes a decrease of 1 μmol NADH in one minute.
The enzyme obtained in Example 1 was reacted with various alcohols and ketones, and the activity of oxidation and reduction is shown in Table 2. Herein, the relative activity is indicated taking the oxidation of (R)-1,3-butanediol and reduction of 4-hydroxy-2-butanone as 100.

[2] = test system: (R)-2,3-butanediol dehydrogenase; assay: Stereoselectivity, oxidation of alcohol isomers by the enzyme obtained in Example 1; assay type: biochemical, Kluyveromyces lactis; conditions: coenzyme NAD+; higher oxidation activity between the two isomers taken as 100
Method: (§2) A reaction solution containing 50 mM potassium phosphate buffer (pH 6.5), 2.5 mM NAD^+, 20 mM (R)-1,3-butanediol, and the enzyme is reacted at 30° C., and the increase in absorbance at 340 nm due to the increase of NADH is measured. 1 U is defined as the amount of enzyme that catalyzes an increase of 1 μmol NADH in one minute. Further, the quantity of the protein is determined by the pigment bonding method using protein assay kit (Biorad).
The enzyme obtained in Example 1 was reacted with 1,3-butanediol, 1,2-propanediol, 2,3-butanediol, 2-butanol, and 3-chloro-1,2-propanediol, and the activities are shown in Table 3. Herein, the relative activity is indicated, taking the higher oxidation activity between the two isomers as 100. The stereoselectivity for 2,3-butanediol, and 1,2-propandiol of the (R)-2,3-butanediol dehydrogenase according to the present invention was extremely high.

[3] = test system: (R)-2,3-butanediol dehydrogenase; assay: Substrate specificity, oxidation reaction of the enzyme obtained in Example 1 with alcohols; assay type: biochemical, Kluyveromyces lactis; conditions: for Relative Activity, Oxidation Reaction: coenzyme NAD+, oxidation of (R)-1,3-butanediol taken as 100
Method: as §2
Herein, the relative activity is indicated taking the oxidation of (R)-1,3-butanediol and reduction of 4-hydroxy-2-butanone as 100.

[4] = biological target: T1, Glycerol dehydrogenase produced from Escherichia coli W-1485 (Escherichia coli, UniProt P0A9S5); conditions: J. Biol. Chem. 259: 2124-2129, 1984; NAD+ reduction; cited from earlier work
T1 construct: host or cells: Escherichia coli W-1485
T1 sequence (P0A9S5 1-367): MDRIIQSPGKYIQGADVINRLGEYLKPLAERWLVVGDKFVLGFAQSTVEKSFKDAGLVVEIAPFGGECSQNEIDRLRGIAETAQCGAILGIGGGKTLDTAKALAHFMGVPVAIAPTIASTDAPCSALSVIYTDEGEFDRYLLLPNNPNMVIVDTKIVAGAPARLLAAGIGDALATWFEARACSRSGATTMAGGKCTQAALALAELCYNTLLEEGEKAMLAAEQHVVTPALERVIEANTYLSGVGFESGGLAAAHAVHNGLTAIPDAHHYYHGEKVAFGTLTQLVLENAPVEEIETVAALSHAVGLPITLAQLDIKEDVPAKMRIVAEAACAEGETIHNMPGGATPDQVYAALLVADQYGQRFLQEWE

[5] = test system: (R)-2,3-butanediol dehydrogenase; assay: Substrate specificity, reduction reaction of the enzyme obtained in Example 1 with ketones; assay type: biochemical, Kluyveromyces lactis
[6] = Oxidation activity on (R)-1,3-butanediol of the purified enzyme; assay type: biochemical, Kluyveromyces lactis; conditions: (R)-1,3-butanediol oxidation activity
Method: as §2
The (R)-1,3-butanediol oxidation activity and 4-hydroxy-2-butanone reduction activity of the enzyme obtained in Example 1 was investigated by changing the pH using potassium phosphate buffer solution, sodium acetate buffer solution, and Britton-Robinson wide-range buffer solution. The oxidation activity and the reduction activity are depicted in FIGS. 2 and 3, respectively, wherein the relative activity are indicated taking the maximum activity as 100. The optimum pH was 6.0 for both reactions, oxidation and reduction.
The (R)-1,3-butanediol oxidation activity and 4-hydroxy-2-butanone reduction activity of the enzyme obtained in Example 1 were measured by changing only the temperature of the standard reaction conditions. […] The optimum reaction temperature was 37° C. for both reactions, oxidation and reduction.

[7] = Reduction activity on 4-hydroxy-2-butanone of the purified enzyme; assay type: biochemical, Kluyveromyces lactis; conditions: 4-hydroxy-2-butanone reduction activity
Method: as §1
Kluyveromyces lactis strain IFO 1267 was cultured in 1.2 liters of YM medium (glucose 20 g/L, yeast extract 3 g/L, malt extract 3 g/L, peptone 5 g/L, pH 6.0) and the cell bodies were prepared by centrifugation. The resulting wet cell bodies were suspended in 50 mM potassium phosphate buffer (pH 8.0), containing 0.02% 2-mercaptoethanol and 2 mM phenylmethane sulfonylfluoride (PMSF), and after homogenizing with Bead Beater (Biospec), the residue of the cell bodies were removed by centrifugation to obtain a cell-free extract. Protamine sulfate was then added to the cell-free extract followed by centrifugation to obtain enucleated supernatant. […]
The (R)-1,3-butanediol oxidation activity and 4-hydroxy-2-butanone reduction activity of the enzyme obtained in Example 1 were measured by changing only the temperature of the standard reaction conditions. […]

| Molecule | Relative Activity, Reduction Reaction [1] | Relative Activity (stereoselectivity) [2] | further results |
| --- | --- | --- | --- |
| CC(=O)CO [Acetol] | 53600 |  |  |
| C[C@H](O)CCO [(S)-1,3-butanediol] |  | 35 |  |
| OC[C@H](O)CCl [(S)-3-chloro-1,2-propanediol] |  | 100 | Relative Activity, Oxidation Reaction [3]: 128 |
| C[C@@H](O)[C@@H](C)O [(2R, 3R)-butanediol, (2R,3R)-2,3-butanediol] |  | 100 | Vmax [4]: 28.0 U/mg protein; Relative Activity, Oxidation Reaction [3]: 15600 |
| CCC(C)=O [2-Butanone] | 31 |  |  |
| CCC(=O)C(C)=O [2,3-Pentanedione] | 51400 |  |  |
| OCC(O)CO [Glycerin] |  |  | Relative Activity, Oxidation Reaction [3]: 66 |
| CCC(=O)CO [1-Hydroxy-2-butanone] | 12100 |  |  |
| C[C@@H](O)CO [(R)-1,2-propanediol] |  | 100 | Relative Activity, Oxidation Reaction [3]: 13800 |
| CCO [Ethanol] |  |  | Relative Activity, Oxidation Reaction [3]: 0 |
| CCC(=O)CC [3-Pentanone] | 100 |  |  |
| CC(=O)CCO [4-Hydroxy-2-butanone] | 100 |  |  |
| C[C@H](O)CO [(S)-1,2-propanediol] |  | 1 |  |
| CC(=O)c1ccccc1 [Acetophenone] | 36 |  |  |
| NC(=O)C1=CN([C@@H]2O[C@H](COP(=O)(O)OP(=O)(O)OC[C@H]3O[C@@H](n4cnc5c(N)ncnc54)[C@H](OP(=O)(O)O)[C@@H]3O)[C@@H](O)[C@H]2O)C=CC1 [NADPH, reduced β-nicotinamide adenine dinucleotide phosphate] |  |  | use as a coenzyme in the reduction reaction [5]: substantially unable to use |
| C[C@@H](O)CCO [(R)-1,3-butanediol] |  | 100 | Relative Activity, Oxidation Reaction [3]: 100 |

| Molecule | Relative Activity, Reduction Reaction [1] | Relative Activity (stereoselectivity) [2] | further results |
| --- | --- | --- | --- |
| O=C(CO)c1ccccc1 [2-Hydroxy-acetophenone] | 360 |  |  |
| CCOC(=O)CC(C)=O [Ethyl acetoacetate] | 0 |  |  |
| CCOC(=O)CC(=O)CCl [4-Chloro-ethyl acetoacetate] | 0 |  |  |
| OC[C@@H](O)CCl [(R)-3-chloro-1,2-propanediol] |  | 29 |  |
| CC(=O)C(C)=O [2,3-Butanedione] | 46400 |  |  |
| CC(C)=O [Acetone] | 63 |  |  |
| (R)-2-butanol |  | 100 | Relative Activity, Oxidation Reaction [3]: 28 |
| CC(=O)CC(C)=O [2,4-Pentanedione] | 0 |  |  |
| C[C@H](O)[C@H](C)O [(2S,3S)-2,3-butanediol] |  | 1 |  |
| NC(=O)c1ccc[n+]([C@@H]2O[C@H](COP(=O)([O-])OP(=O)(O)OC[C@H]3O[C@@H](n4cnc5c(N)ncnc54)[C@H](OP(=O)(O)O)[C@@H]3O)[C@@H](O)[C@H]2O)c1 [NADP^+, β-nicotinamide adenine dinucleotide phosphate] |  |  | use as a coenzyme in the oxidation reaction [3]: substantially unable to use |
| CC(=O)C(C)O (stereo not drawn) [Acetoin] | 101000 |  |  |
| CC(C)O [Isopropyl alcohol] |  |  | Relative Activity, Oxidation Reaction [3]: 48 |
| (S)-2-butanol |  | 75 |  |
| n-Butanol |  |  | Relative Activity, Oxidation Reaction [3]: 0 |
| enzyme obtained in Example 1: NAD+-dependent (R)-2,3-butanediol dehydrogenase purified from Kluyveromyces lactis strain IFO 1267 (SEQ ID NO:2) (protein, listed as Kluyveromyces lactis) MRALAYFGKQDIRYTKDLEEPVIETDDGIEIEVSWCGICGSDLHEYLDGPIFFPEDGKVHDVSGLGLPQAMGHEMSGIVSKVGPKVTNIKAGDHVVVEATGTCLDHYTWPNAAHAKDAECAACQRGFYNCCAHLGFMGLGVHSGGFAEKVVVSEKHVVKIPNTLPLDVAALVEPISVSWHAVRISKLQKGQSALVLGAGPIGLATILALQGHGASKIVVSEPAEIRRNQAAKLGVETFDPSEHKEDAVNILKKLAPGGEGFDFAYDCSGVKPTFDTGVHATTFRGMYVNIAIWGHKPIDFKPMDVTLQEKFVTGSMCYTIKDFEDVVQALGNGSIAIDKARHLITGRQKIEDGFTKGFDELMNHKEKNIKILLTPNNHGELDATN |  |  | optimum pH, oxidation [6]: 6.0; optimum pH, reduction [7]: 6.0; specific activity ([7]; after hydroxyapatite column): about 1.5 U/mg |
